As usually defined, the EC50 is the concentration at which the effect is half-maximal. A word on the EC90: it is the point of the concentration-response curve where the effect stands at 90%.

Molecules are shown by their SMILES.

One assay deals with dengue virus type 2. Put plainly: Functional assay to measure dose dependent changes in antiviral-drug inhibitory efficacy against Dengue virus type 2 New Guinea C in Vero E6 miRFP670 cells (cotreated with P-gp inhibitor, CP100356). Cells are treated with antiviral candidates that are serially diluted, following infection, cells are fixed. EC50 is reported via analysis of fluorescence intensity using high-content imager. The …. The format is organism-based, Chlorocebus sabaeus, Vero C1008. The settings on record: for EC90: P-gp concentration 500 nM, P-gp inhibitor CP100356.

The subject of the next assay is Zika virus. In words: Functional CPE-based assay to measure dose dependent changes in antiviral-drug inhibitory efficacy against Zika virus MR766 in Vero E6 miRFP670 cells (cotreated with P-gp inhibitor, CP100356). Cells are treated with antiviral candidates that are serially diluted. EC50 is reported via analysis of MTS assay as a readout of CPE. The assay has been performed by KU Leuven. The format is organism-based, Chlorocebus sabaeus, Vero C1008. The settings on record: Zika virus.

Take `N#Cc1cc2c(cc1NC(=O)c1cc(F)cc3[nH]ncc13)CNC2`: the EC50 is more than 25 µM with dengue virus type 2 (Dengue virus, Vero C1008) and 2.09 µM with Zika virus (Vero C1008). Besides, the EC90 with dengue virus type 2 (Dengue virus, Vero C1008, Maximum measured 167.339 %, Minimum measured 79.168 %) is more than 25 µM; in the assay with Zika virus (Vero C1008, Baseline response 0 %, EC90 CI (lower) 2.64 uM, EC90 CI (upper) 7.54 uM, Hill slope 2.894, Maximum measured 123.396 %, Maximum response 100 %, Minimum measured 1.493 %, P-gp concentration 500 nM, R squared 0.93, P-gp inhibitor CP100356) it was 4.46 µM.

For the molecule `O=C(Nc1ccc2c(c1)CN[C@H]2CCO)c1cc(F)cc2[nH]ncc12`, the EC50 with dengue virus type 2 (Dengue virus, Vero C1008) is more than 50 µM; in the assay with Zika virus (Vero C1008), more than 50 µM. In addition, the EC90 in the assay with dengue virus type 2 (Dengue virus, Vero C1008, Baseline response 0 %, Hill slope 0.366, Maximum measured 128.215 %, Maximum response 100 %, Minimum measured 81.639 %, R squared 0.156) is more than 50 µM; with Zika virus (Vero C1008, Baseline response 0 %, Hill slope 1.133, Maximum measured 29.989 %, Maximum response 100 %, Minimum measured 0.147 %, P-gp concentration 500 nM, R squared 0.888, P-gp inhibitor CP100356), more than 50 µM.

As to `O=C(Nc1ccc2c(c1)CNC2)c1cccc2[nH]c(=O)[nH]c12`, the EC50 in the assay on dengue virus type 2 (Dengue virus, Vero C1008) is more than 12.5 µM; in the assay on Zika virus (Vero C1008), more than 50 µM. Besides, the EC90 in the assay on dengue virus type 2 (Dengue virus, Vero C1008, Baseline response 0 %, Hill slope 0.241, Maximum measured 94.031 %, Maximum response 100 %, Minimum measured 72.295 %, R squared 0.287) was more than 12.5 µM; in the assay on Zika virus (Vero C1008, Maximum measured 11.079 %, Minimum measured -6.229 %, P-gp concentration 500 nM, P-gp inhibitor CP100356), more than 50 µM.

On to `N#CCc1cc(NC(=O)c2cc(F)cc3[nH]ncc23)cc2c1CNC2`, for which the EC50 was more than 50 µM with dengue virus type 2 (Dengue virus, Vero C1008) and 41.5 µM in the assay with Zika virus (Vero C1008). The concentration for an effect of 90% (EC90) in the assay on dengue virus type 2 (Dengue virus, Vero C1008, Maximum measured 146.108 %, Minimum measured 103.208 %) is more than 50 µM; in the assay on Zika virus (Vero C1008, Baseline response 0 %, Hill slope 1.989, Maximum measured 59.393 %, Maximum response 100 %, Minimum measured -2.191 %, P-gp concentration 500 nM, R squared 0.98, P-gp inhibitor CP100356) it was more than 50 µM.

For the molecule `O=C(Nc1ccc2c(c1)CNC2)c1cc(F)cc2[nH]c(-c3cccc(F)c3)nc12`, the EC50 with dengue virus type 2 (Dengue virus, Vero C1008) is more than 1.56 µM; with Zika virus (Vero C1008), more than 50 µM. Moreover, the EC90 in the assay with dengue virus type 2 (Dengue virus, Vero C1008, Baseline response 0 %, Hill slope -0.435, Maximum measured 206.615 %, Maximum response 236.845 %, Minimum measured 186.851 %, R squared 0.182) was more than 1.56 µM; in the assay on Zika virus (Vero C1008, Baseline response 0 %, Hill slope 2.278, Maximum measured 12.458 %, Maximum response 100 %, Minimum measured -7.568 %, P-gp concentration 500 nM, R squared 0.376, P-gp inhibitor CP100356), more than 50 µM.

Turning to `O=C(Nc1cc2c(c(C3=CCOCC3)c1)CNC2)c1cc(F)cc2[nH]ncc12`, the EC50 in the assay with dengue virus type 2 (Dengue virus, Vero C1008) is more than 25 µM; in the assay with Zika virus (Vero C1008) it was 7.33 µM. Further, the 90% effect concentration (EC90) is more than 25 µM in the assay with dengue virus type 2 (Dengue virus, Vero C1008, Maximum measured 218.898 %, Minimum measured 80.524 %) and 11 µM in the assay with Zika virus (Vero C1008, Baseline response 0 %, EC90 CI (lower) 5.793 uM, EC90 CI (upper) 20.937 uM, Hill slope 5.397, Maximum measured 131.01 %, Maximum response 100 %, Minimum measured -1.308 %, P-gp concentration 500 nM, R squared 0.937, P-gp inhibitor CP100356).

On to `CCCn1cc2c(C(=O)Nc3ccc4c(c3)CNC4)cc(Cl)cc2n1`, for which the EC50 was more than 3.12 µM with dengue virus type 2 (Dengue virus, Vero C1008) and 3.04 µM with Zika virus (Vero C1008). Moreover, the EC90 in the assay on dengue virus type 2 (Dengue virus, Vero C1008, Baseline response 0 %, Hill slope 1.203, Maximum measured 92.059 %, Maximum response 100 %, Minimum measured 55.102 %, R squared 0.785) is more than 3.12 µM; in the assay on Zika virus (Vero C1008), 3.55 µM.

Regarding `C=CC[C@H]1NCc2cc(NC(=O)c3cc(F)cc4c3CC(=O)N4)ccc21`, the EC50 was more than 50 µM with dengue virus type 2 (Dengue virus, Vero C1008) and 8.05 µM with Zika virus (Vero C1008). Further, the EC90 is more than 50 µM in the assay on dengue virus type 2 (Dengue virus, Vero C1008, Baseline response 0 %, Hill slope 1.022, Maximum measured 178.628 %, Maximum response 100 %, Minimum measured 80.7 %, R squared 0.039) and 19.4 µM in the assay with Zika virus (Vero C1008).

Regarding `CC(C)(C)OC(=O)N1Cc2ccc(N[C@H](C(=O)O)c3cc(Cl)cc4[nH]ncc34)cc2C1`, the EC50 in the assay on dengue virus type 2 (Dengue virus, Vero C1008) was more than 50 µM; in the assay with Zika virus (Vero C1008), more than 50 µM. For the same molecule, the EC90 in the assay with dengue virus type 2 (Dengue virus, Vero C1008, Maximum measured 176.94 %, Minimum measured 116.898 %) was more than 50 µM; in the assay with Zika virus (Vero C1008, Baseline response 0 %, Hill slope -0.446, Maximum measured 2.879 %, Maximum response 100 %, Minimum measured -1.465 %, P-gp concentration 500 nM, R squared 0.442, P-gp inhibitor CP100356), more than 50 µM.

Turning to `CC(C)n1cc2c(C(=O)Nc3ccc4c(c3)CNC4)cc(Cl)cc2n1`, the EC50 in the assay with dengue virus type 2 (Dengue virus, Vero C1008) is more than 12.5 µM; in the assay with Zika virus (Vero C1008), 1.67 µM. Besides, the 90% effect concentration (EC90) was more than 12.5 µM with dengue virus type 2 (Dengue virus, Vero C1008, Maximum measured 192.332 %, Minimum measured 77.026 %) and 1.93 µM in the assay with Zika virus (Vero C1008).

Regarding `O=C(NCCC1CC1)[C@H](Nc1ccc2c(c1)CNC2)c1cc(Cl)cc(C2CC2)c1`, the EC50 was more than 12.5 µM in the assay on dengue virus type 2 (Dengue virus, Vero C1008) and 5.72 µM with Zika virus (Vero C1008). For the same molecule, the EC90 is more than 12.5 µM in the assay with dengue virus type 2 (Dengue virus, Vero C1008, Baseline response 0 %, Hill slope -1.051, Maximum measured 118.853 %, Maximum response 100 %, Minimum measured 76.41 %, R squared 0.201) and more than 6.25 µM with Zika virus (Vero C1008, Baseline response 0 %, Hill slope 7.335, Maximum measured 65.758 %, Maximum response 100 %, Minimum measured 0.052 %, P-gp concentration 500 nM, R squared 0.996, P-gp inhibitor CP100356).

As to `O=C(Nc1ccc2c(c1)CNC2)c1cccc2c1[C@]1(CCNC1)C(=O)N2`, the EC50 in the assay on dengue virus type 2 (Dengue virus, Vero C1008) is more than 12.5 µM; in the assay on Zika virus (Vero C1008), more than 50 µM. Further, the 90% effect concentration (EC90) was more than 12.5 µM in the assay with dengue virus type 2 (Dengue virus, Vero C1008, Maximum measured 172.695 %, Minimum measured 97.519 %) and more than 50 µM in the assay with Zika virus (Vero C1008, Baseline response 0 %, Hill slope 1.1, Maximum measured 3.95 %, Maximum response 100 %, Minimum measured -2.689 %, P-gp concentration 500 nM, R squared 0.205, P-gp inhibitor CP100356).

For `O=C(Nc1ccc2c(c1)CNC2)c1cc(Cl)cc2c1cnn2C1CCC1`, the EC50 was more than 6.25 µM in the assay on dengue virus type 2 (Dengue virus, Vero C1008) and 1.26 µM in the assay on Zika virus (Vero C1008). The EC90 in the assay on dengue virus type 2 (Dengue virus, Vero C1008, Maximum measured 167.025 %, Minimum measured 94.774 %) is more than 6.25 µM; in the assay with Zika virus (Vero C1008, Baseline response 0 %, EC90 CI (lower) 1.13 uM, EC90 CI (upper) 4.462 uM, Hill slope 3.792, Maximum measured 124.257 %, Maximum response 100 %, Minimum measured 13.491 %, P-gp concentration 500 nM, R squared 0.856, P-gp inhibitor CP100356), 2.25 µM.

As to `O=C(Nc1cc(Cl)cc(-c2ccc3[nH]c(C(=O)O)cc3c2)c1)OCc1ccccc1`, the EC90 in the assay on dengue virus type 2 (Baseline response 0 %, EC90 CI (lower) 8.977 uM, EC90 CI (upper) 21.139 uM, Hill slope -3.716, Maximum measured 111.991 %, Maximum response 100 %, Minimum measured 0.586 %, R squared 0.931) is 45 µM; in the assay with dengue virus type 2 (Baseline response 0 %, Hill slope -1.036, Maximum measured 105.577 %, Maximum response 100 %, Minimum measured 51.847 %, R squared 0.535), more than 12.5 µM; in the assay with Zika virus (Vero C1008, Baseline response 0 %, Hill slope 14.672, Maximum measured 32.342 %, Maximum response 100 %, Minimum measured -3.566 %, P-gp concentration 500 nM, R squared 0.926, P-gp inhibitor CP100356), more than 25 µM. For the same molecule, the concentration for a half-maximal effect (EC50) in the assay with dengue virus type 2 (Dengue virus, Vero C1008) is 24.9 µM; in the assay on dengue virus type 2 (vero c1008) it was more than 12.5 µM; with Zika virus (Vero C1008) it was more than 25 µM.

Take `O=C(Nc1ccc2c(c1)CN[C@H]2C[C@H](O)CO)c1cc(F)cc2[nH]ncc12`: the EC50 was more than 50 µM in the assay on dengue virus type 2 (Dengue virus, Vero C1008) and more than 50 µM in the assay on Zika virus (Vero C1008). In addition, the 90% effect concentration (EC90) in the assay on dengue virus type 2 (Dengue virus, Vero C1008, Baseline response 0 %, Hill slope 0.494, Maximum measured 181.349 %, Maximum response 100 %, Minimum measured 67.92 %, R squared 0.043) was more than 50 µM; in the assay with Zika virus (Vero C1008, Maximum measured 5.346 %, Minimum measured 2.665 %, P-gp concentration 500 nM, P-gp inhibitor CP100356), more than 50 µM.

Take `Clc1cc(CNc2ccc3c(c2)CNC3)c2cn[nH]c2c1`: the EC50 came out at 3.18 µM with dengue virus type 2 (Dengue virus, Vero C1008) and 17.9 µM with Zika virus (Vero C1008). Besides, the EC90 in the assay with dengue virus type 2 (Dengue virus, Vero C1008, Baseline response 0 %, Hill slope -0.438, Maximum measured 74.942 %, Maximum response 100 %, Minimum measured 39.794 %, R squared 0.558) was more than 12.5 µM; in the assay on Zika virus (Vero C1008, Baseline response 0 %, Hill slope 3.353, Maximum measured 76.866 %, Maximum response 100 %, Minimum measured 0.884 %, P-gp concentration 500 nM, R squared 0.96, P-gp inhibitor CP100356) it was more than 25 µM.

Values taken from ChEMBL document CHEMBL5661943, “ASAP - In vitro antiviral effect” (2024).
